The target of data set [1] is 5-hydroxytryptamine receptor 2A (Rattus norvegicus, UniProt P14842). Nature of the data set: biochemical.
For data set [2], the target named is T1, 5-hydroxytryptamine receptor 1A (Rattus norvegicus, UniProt P19327).
T1 sequence (P19327 whole entry): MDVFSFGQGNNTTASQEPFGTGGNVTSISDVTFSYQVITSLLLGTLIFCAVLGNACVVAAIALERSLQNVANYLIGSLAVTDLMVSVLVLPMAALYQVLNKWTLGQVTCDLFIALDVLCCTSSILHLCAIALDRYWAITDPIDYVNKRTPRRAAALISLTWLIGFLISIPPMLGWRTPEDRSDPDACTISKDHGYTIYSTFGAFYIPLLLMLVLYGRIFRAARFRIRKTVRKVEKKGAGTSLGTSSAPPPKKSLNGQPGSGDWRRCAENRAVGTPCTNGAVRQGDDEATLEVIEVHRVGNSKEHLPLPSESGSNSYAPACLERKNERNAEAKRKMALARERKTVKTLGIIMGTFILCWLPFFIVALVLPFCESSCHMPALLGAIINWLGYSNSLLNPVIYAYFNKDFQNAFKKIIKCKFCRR
Nature of the data set: biochemical.

The target of data set [3] is D(2) dopamine receptor (Rattus norvegicus, UniProt P61169). Nature of the data set: biochemical.
The conditions of data set [4]: mouse, in vivo, po.
Data set [5] in a line: Therapeutic index, ratio of ED50 for toxicity in po dosed Kunming mouse assessed as catalepsy to ED50 for antipsychotic activity in Kunming mouse assessed as inhibition of MK801-induced locomotor activity. The data set is classed as organism-based. Particulars: in vivo, read-out: Ratio ED50.
Data set [6] is filed under the species Mus musculus. Nature of the data set: animal or person. Particulars: Kunming, po.
Data set [7] is filed under the species Mus musculus. Nature of the data set: animal or person. Particulars: Kunming, po. This is another data set of the same source.
Data set [8] is described as follows: Therapeutic index, ratio of ED50 for toxicity in po dosed Kunming mouse assessed as catalepsy to ED50 for antipsychotic activity in Kunming mouse assessed as inhibition of apomorphine-induced climbing behavior. The data set is classed as organism-based. Particulars: in vivo, read-out: Ratio ED50.
Data set [9] in a line: Effect on total exploration time in Sprague-Dawley rat at 0.2 mg/kg, po measured after 1 hr by novel object recognition test. Particulars: in vivo. The data set is classed as ADME, organism-based.
The species entered for data set [10] is Mus musculus. Nature of the data set: animal or person. Particulars: Kunming, po, 1.333 h.
Data set [11] can be described thus: Toxicity in Kunming mouse assessed as change in body weight at 0.1 to 0.3 mg/kg, po administered for 28 days measured daily during compound dosing. The data set is classed as organism-based. Particulars: in vivo, 672 h, dose 0.1-0.3 mg/kg, time 28 day.
Data set [12] can be described thus: Effect on spontaneous locomotor activity in Kunming mouse assessed as total distance traveled at 1 mg/kg, ig measured after 1 hr (reference value: 13579 +/- 8864 millimeter). The data set is classed as ADME, organism-based. Particulars: in vivo, po.
The nature of data set [13]: Effect on spontaneous locomotor activity in Kunming mouse assessed as total distance traveled at 3 mg/kg, ig measured after 1 hr (reference value: 13579 +/- 8864 millimeter). The data set is classed as ADME, organism-based. Particulars: in vivo, po.
Data set [14] is described as follows: Effect on spontaneous locomotor activity in Kunming mouse assessed as total distance traveled at 10 mg/kg, ig measured after 1 hr (reference value: 13579 +/- 8864 millimeter). The data set is classed as ADME, organism-based. Particulars: in vivo, po.
In data set [15] the target is 5-hydroxytryptamine receptor 2C (Rattus norvegicus, UniProt P08909).
Data set [16] deals with Histamine H1 receptor (Cavia porcellus, UniProt P31389).
The target in data set [17] is 5-hydroxytryptamine receptor 7 (Rattus norvegicus, UniProt P32305). Nature of the data set: biochemical.
Data set [18] concerns the target Adrenergic receptor alpha-1 (Rattus norvegicus, UniProt P15823+P23944+P43140).
For data set [19], the target named is 5-hydroxytryptamine receptor 6 (Homo sapiens, UniProt P50406).
The test system of the next data set is Rattus norvegicus. Nature of the data set: Cognitive enhancement effect in Sprague-Dawley rat assessed as increase in time spent in exploring novel object at 0.2 mg/kg, po administered 1 hr prior to acquisition trial and measured after 24 hrs by novel object recognition test. The data set is classed as functional, organism-based.
Data set [20] is described as follows: Displacement of [3H]ketanserin from human 5HT2A receptor expressed in CHO-K1 cells measured after 20 mins.
For data set [21], the target named is D(2) dopamine receptor (Homo sapiens, UniProt P14416). Nature of the data set: Binding affinity to D2 receptor (unknown origin).
The target in data set [22] is Histamine H1 receptor (Homo sapiens, UniProt P35367). Nature of the data set: Binding affinity to H1 receptor (unknown origin).
For data set [23], the target named is 5-hydroxytryptamine receptor 2C (Homo sapiens, UniProt P28335). Nature of the data set: Binding affinity to 5HT2C receptor (unknown origin).
Data set [24] concerns the target 5-hydroxytryptamine receptor 1A (Homo sapiens, UniProt P08908). Nature of the data set: Binding affinity to 5HT1A receptor (unknown origin).
In the next data set the target is D(3) dopamine receptor (Homo sapiens, UniProt P35462).
Data set [25] deals with 5-hydroxytryptamine receptor 2A (Homo sapiens, UniProt P28223). Nature of the data set: Binding affinity to 5HT2A receptor (unknown origin).

Active and inactive are the calls of the source. No cut-off for these calls is given here.

Sequence of D(2) dopamine receptor (Rattus norvegicus, UniProt P61169) (P61169 whole entry): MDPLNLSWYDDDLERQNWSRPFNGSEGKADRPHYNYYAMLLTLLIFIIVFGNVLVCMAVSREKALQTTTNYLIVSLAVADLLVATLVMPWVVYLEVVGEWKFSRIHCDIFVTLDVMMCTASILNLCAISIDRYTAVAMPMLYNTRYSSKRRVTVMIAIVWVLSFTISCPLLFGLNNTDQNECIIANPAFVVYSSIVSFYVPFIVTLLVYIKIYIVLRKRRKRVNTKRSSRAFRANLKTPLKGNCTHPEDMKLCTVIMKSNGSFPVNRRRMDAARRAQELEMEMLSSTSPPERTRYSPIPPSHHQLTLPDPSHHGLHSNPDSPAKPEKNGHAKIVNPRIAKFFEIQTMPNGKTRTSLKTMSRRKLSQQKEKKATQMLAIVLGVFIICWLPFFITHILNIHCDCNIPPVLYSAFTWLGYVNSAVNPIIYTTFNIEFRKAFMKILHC
Sequence of 5-hydroxytryptamine receptor 2A (Rattus norvegicus, UniProt P14842) (P14842 whole entry): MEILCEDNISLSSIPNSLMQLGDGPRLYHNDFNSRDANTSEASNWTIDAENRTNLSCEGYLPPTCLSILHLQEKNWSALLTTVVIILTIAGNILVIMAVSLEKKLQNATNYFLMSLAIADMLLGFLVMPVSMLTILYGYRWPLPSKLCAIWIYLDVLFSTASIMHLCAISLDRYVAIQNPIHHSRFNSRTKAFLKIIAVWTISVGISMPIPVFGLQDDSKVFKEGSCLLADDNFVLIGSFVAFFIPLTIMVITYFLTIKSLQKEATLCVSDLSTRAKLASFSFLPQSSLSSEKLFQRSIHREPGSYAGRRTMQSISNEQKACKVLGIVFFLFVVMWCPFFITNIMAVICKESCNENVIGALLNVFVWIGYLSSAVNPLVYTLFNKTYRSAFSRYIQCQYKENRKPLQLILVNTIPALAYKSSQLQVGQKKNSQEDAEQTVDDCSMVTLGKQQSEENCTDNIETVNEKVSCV
Sequence of D(3) dopamine receptor (P35462 whole entry): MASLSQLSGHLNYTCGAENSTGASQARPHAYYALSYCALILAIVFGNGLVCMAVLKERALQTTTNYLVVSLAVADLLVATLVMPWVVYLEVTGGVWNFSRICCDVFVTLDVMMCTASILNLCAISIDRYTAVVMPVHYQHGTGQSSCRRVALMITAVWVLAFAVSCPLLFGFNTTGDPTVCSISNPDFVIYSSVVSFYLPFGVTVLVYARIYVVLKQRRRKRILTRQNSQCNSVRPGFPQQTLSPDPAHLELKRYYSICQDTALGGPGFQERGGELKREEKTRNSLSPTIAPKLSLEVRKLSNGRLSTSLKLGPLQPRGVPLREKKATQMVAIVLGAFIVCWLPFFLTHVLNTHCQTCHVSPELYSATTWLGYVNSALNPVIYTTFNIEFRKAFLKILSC
Sequence of 5-hydroxytryptamine receptor 7 (P32305 whole entry): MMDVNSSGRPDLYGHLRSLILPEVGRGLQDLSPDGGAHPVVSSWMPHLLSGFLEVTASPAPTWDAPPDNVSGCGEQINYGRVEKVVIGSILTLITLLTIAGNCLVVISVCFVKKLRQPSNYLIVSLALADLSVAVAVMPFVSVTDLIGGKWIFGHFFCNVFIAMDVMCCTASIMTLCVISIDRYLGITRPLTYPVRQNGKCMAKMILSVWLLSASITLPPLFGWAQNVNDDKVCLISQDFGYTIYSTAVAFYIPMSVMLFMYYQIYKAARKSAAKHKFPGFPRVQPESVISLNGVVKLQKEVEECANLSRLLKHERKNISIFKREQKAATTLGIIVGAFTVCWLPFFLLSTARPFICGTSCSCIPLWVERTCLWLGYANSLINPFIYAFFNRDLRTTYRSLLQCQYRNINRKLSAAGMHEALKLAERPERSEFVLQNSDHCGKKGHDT
Sequence of 5-hydroxytryptamine receptor 2C (Homo sapiens, UniProt P28335) (P28335 whole entry): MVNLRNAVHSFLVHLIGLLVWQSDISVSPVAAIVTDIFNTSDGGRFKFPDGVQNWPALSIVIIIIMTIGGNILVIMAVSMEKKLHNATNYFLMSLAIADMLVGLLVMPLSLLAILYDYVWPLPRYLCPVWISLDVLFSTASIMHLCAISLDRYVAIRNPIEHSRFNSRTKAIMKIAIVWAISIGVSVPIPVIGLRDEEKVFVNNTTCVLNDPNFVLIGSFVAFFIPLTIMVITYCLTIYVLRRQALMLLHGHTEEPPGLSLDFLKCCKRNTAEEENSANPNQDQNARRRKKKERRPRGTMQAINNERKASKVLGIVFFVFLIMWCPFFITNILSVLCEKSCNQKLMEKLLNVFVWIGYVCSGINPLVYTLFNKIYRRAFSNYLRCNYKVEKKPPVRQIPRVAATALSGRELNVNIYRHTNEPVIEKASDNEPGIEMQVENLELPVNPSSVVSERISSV
Sequence of 5-hydroxytryptamine receptor 2C (Rattus norvegicus, UniProt P08909) (P08909 whole entry): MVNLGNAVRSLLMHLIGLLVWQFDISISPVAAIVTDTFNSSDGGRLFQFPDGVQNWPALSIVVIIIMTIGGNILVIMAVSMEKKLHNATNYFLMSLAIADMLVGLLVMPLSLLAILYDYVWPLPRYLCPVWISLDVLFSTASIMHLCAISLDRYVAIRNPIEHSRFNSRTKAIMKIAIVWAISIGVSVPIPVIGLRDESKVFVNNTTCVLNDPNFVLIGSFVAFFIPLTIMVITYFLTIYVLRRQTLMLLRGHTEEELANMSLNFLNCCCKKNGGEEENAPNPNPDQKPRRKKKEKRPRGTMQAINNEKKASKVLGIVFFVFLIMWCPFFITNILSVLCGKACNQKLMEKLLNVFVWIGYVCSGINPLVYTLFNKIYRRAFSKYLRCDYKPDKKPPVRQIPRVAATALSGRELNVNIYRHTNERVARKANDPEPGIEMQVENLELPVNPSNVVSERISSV
Sequence of Histamine H1 receptor (Homo sapiens, UniProt P35367) (P35367 whole entry): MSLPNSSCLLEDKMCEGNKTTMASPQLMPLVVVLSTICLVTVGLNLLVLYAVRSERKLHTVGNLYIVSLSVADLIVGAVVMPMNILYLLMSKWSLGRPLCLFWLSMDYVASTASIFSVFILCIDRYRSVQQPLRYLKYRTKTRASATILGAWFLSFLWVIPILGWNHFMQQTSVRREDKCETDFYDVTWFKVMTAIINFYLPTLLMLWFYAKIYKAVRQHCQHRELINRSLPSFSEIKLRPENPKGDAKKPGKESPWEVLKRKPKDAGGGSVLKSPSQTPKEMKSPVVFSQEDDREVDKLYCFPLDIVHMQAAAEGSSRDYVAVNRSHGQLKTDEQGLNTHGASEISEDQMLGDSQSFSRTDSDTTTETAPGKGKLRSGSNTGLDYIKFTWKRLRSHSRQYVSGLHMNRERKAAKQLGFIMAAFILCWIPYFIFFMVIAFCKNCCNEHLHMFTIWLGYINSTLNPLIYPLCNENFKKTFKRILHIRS
Sequence of 5-hydroxytryptamine receptor 6 (P50406 whole entry): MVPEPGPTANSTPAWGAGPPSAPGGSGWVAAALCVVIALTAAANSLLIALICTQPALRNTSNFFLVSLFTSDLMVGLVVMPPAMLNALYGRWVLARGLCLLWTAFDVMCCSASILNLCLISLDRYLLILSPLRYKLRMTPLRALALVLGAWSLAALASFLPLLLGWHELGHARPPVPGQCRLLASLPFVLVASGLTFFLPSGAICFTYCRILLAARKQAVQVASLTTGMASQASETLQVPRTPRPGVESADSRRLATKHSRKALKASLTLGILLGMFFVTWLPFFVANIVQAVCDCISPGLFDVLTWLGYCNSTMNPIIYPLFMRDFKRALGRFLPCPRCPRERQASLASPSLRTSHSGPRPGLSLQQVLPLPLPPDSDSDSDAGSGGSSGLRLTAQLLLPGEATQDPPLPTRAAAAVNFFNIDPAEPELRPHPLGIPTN
Sequence of 5-hydroxytryptamine receptor 2A (Homo sapiens, UniProt P28223) (P28223 whole entry): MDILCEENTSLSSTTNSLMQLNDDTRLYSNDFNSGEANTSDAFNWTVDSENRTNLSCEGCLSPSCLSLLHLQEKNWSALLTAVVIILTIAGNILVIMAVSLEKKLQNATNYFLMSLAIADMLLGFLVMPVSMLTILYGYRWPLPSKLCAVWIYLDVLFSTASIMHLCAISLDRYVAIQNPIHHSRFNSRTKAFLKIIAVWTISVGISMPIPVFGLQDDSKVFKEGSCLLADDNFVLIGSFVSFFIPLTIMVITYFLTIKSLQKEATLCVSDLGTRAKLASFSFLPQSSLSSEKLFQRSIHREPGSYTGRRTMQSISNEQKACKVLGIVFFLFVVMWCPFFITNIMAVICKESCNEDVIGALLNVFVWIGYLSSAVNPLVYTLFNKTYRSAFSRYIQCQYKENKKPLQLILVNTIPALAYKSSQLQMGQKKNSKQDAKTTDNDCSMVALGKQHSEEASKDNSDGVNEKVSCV
Sequence of Histamine H1 receptor (Cavia porcellus, UniProt P31389) (P31389 whole entry): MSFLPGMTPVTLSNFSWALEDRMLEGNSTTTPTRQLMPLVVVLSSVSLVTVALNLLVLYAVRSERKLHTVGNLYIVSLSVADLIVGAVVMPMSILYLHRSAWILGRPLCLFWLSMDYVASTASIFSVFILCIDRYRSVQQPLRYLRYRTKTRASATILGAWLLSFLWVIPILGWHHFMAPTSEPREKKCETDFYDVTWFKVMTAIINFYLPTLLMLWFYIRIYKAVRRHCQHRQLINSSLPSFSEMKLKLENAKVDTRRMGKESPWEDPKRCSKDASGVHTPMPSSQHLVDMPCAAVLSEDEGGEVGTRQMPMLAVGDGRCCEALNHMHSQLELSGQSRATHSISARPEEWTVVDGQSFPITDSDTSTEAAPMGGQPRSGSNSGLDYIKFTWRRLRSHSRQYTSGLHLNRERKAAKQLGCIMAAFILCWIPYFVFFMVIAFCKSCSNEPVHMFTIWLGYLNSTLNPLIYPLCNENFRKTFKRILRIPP

`CN1CCc2ccc(OCC(F)CN3CCC(c4noc5cc(F)ccc45)CC3)cc2C1=O` (centres undefined): the results for the Ki (in [1]; in data set [2]; at D(2) dopamine receptor [3]) were 23.7 nM, 68.2 nM and 359 nM, respectively.
In the same order, the values of `CN1CCc2ccc(OCCCN3CCN(c4ccccc4Cl)CC3)cc2C1=O` are 179 nM, 89.2 nM and 391 nM.
Turning to `O=C(CCCN1CCC(O)(c2ccc(Cl)cc2)CC1)c1ccc(F)cc1` [HALOPERIDOL], the ED50 turned out to be 0.32 mg/kg in data set [4], 0.11 mg/kg in the data set listed under Mus musculus [6] and 0.09 mg/kg in the data set listed under Mus musculus [7]. Moreover, the selectivity ratio in [5] came to 2.9; in [8], 3.5.
As for `CN1CCc2ccc(OCCCN3CCN(c4ccccc4F)CC3)cc2C1=O`, the Ki stood at 306 nM in data set [1], 262 nM in data set [2] and 117 nM on D(2) dopamine receptor [3].
As to `CN1CCc2ccc(OCCCCN3CCN(c4cccc5sccc45)CC3)cc2C1=O`, the Ki in data set [2] was 431 nM; at D(2) dopamine receptor [3] it was 162 nM.
Take `COc1ccccc1N1CCN(CCCCOc2ccc3c(c2)C(=O)N(C)CC3)CC1`: the Ki (in data set [1]; in data set [2]; on D(2) dopamine receptor [3]) was greater than 10000 nM in each case.
Take `CN1CCc2ccc(OCCN3CCC(c4noc5cc(F)ccc45)CC3)cc2C1=O`: the values for the Ki (in [1]; in data set [2]; on D(2) dopamine receptor [3]) were greater than 10000 nM, greater than 10000 nM and 568 nM, respectively.
As to `CC1CCc2ccc(OCCCCN3CCC(c4nsc5ccccc45)CC3)cc2C1=O` (centres undefined), the figures for the Ki (in [1]; in data set [2]; on D(2) dopamine receptor [3]) were 890 nM, 1300 nM and greater than 10000 nM, respectively.
The matching figures for `CN1CCc2ccc(OCCCN3CCN(Cc4ccc5c(c4)OCO5)CC3)cc2C1=O`: 25.9 nM, 18.3 nM and greater than 10000 nM.
The matching figures for `CN1CCc2ccc(OCCCN3CCN(c4cccc(Cl)c4Cl)CC3)cc2C1=O`: 16.8 nM, 20.1 nM and 68.2 nM.
As to `Cc1nc2n(c(=O)c1CCN1CCC(c3noc4cc(F)ccc34)CC1)CCCC2` [RISPERIDONE], the ED50 turned out to be 1.62 mg/kg in data set [4], 0.04 mg/kg in the data set listed under Mus musculus [6], 0.04 mg/kg in the data set filed under Mus musculus [10] and 0.02 mg/kg in the data set listed under Mus musculus [7]. Also, the results for the Activity result in data set [9] and in data set [11] were “Non-Toxic” and “Toxic”, respectively.
On to `CN1CCc2ccc(OCCCN3CCN(c4ncccn4)CC3)cc2C1=O`, for which the Ki in data set [1] came to 65.3 nM; in data set [2] it was 59.3 nM; at D(2) dopamine receptor [3], 1370 nM.
In the same order, the values of `CCN1CCc2ccc(OCCCN3CCC(c4noc5cc(F)ccc45)CC3)cc2C1=O` are 92.1 nM, 198 nM and 249 nM.
The matching figures for `CN1CCc2cc(OCCCN3CCC(c4noc5cc(F)ccc45)CC3)ccc2C1=O`: 692 nM, greater than 10000 nM and greater than 10000 nM.
As for `O=C1CN=C(c2ccccc2Cl)c2cc([N+](=O)[O-])ccc2N1` [CLONAZEPAM], the results for the Activity in data set [12], in data set [13] and in [14] were 12188 mm, 5784 mm and 762 mm, respectively.
Regarding `Cn1ccc2ccc(OCCCN3CCC(c4noc5cc(F)ccc45)CC3)cc2c1=O`, the Ki in data set [1] worked out at 3.5 nM; in data set [2] it was 12.1 nM; in data set [15], 129 nM; on Histamine H1 receptor [16], 118 nM; at D(2) dopamine receptor [3], 9.2 nM; in [17] it was 109 nM. In addition, the values for the Ki in [18] and in [19] were 718 nM and 167 nM, respectively.
Turning to `COc1ccc(N2CCN(CCCOc3ccc4c(c3)C(=O)N(C)CC4)CC2)cc1`, the Ki (in data set [1]; in data set [2]; on D(2) dopamine receptor [3]) was greater than 10000 nM each time.
As to `CN1CCc2ccc(OCCCCN3CCN(c4cccc(C(F)(F)F)c4)CC3)cc2C1=O`, the Ki in data set [1] worked out at 132 nM; in [2] it was 1040 nM; on D(2) dopamine receptor [3] it was 261 nM.
The matching figures for `CN1CCc2ccc(OCCCN3CCN(c4ccc(Cl)cc4)CC3)cc2C1=O`: 589 nM, 356 nM and 268 nM.
In turn, `CN1CCc2ccc(OCCCN3CCN(c4cccc5sccc45)CC3)cc2C1=O` registered a Ki in data set [2] of 65.2 nM.
Turning to `CN1CCc2ccc(OCCCCN3CCC(c4noc5cc(F)ccc45)CC3)cc2C1=O`, the Ki in [1] was found to be 28.3 nM; in [2] it was 30.6 nM; on D(2) dopamine receptor [3], 41.6 nM.
As for `CN1CCc2ccc(OCCCN3CCN(c4ccc(F)cc4)CC3)cc2C1=O`, the Ki in [1] worked out at 246 nM; in data set [2], 158 nM; on D(2) dopamine receptor [3] it was 532 nM.
Regarding `CN1CCc2ccc(OCCCN3CCC(C(=O)c4ccc(F)cc4F)CC3)cc2C1=O`, the results for the Ki (in [1]; in data set [2]; on D(2) dopamine receptor [3]) were greater than 10000 nM, greater than 10000 nM and 902 nM, respectively.
Take `CN1CCc2ccc(OCCCCN3CCN(c4cccc(Cl)c4Cl)CC3)cc2C1=O`: the Ki in data set [1] stood at 216 nM; in data set [2], 119 nM; on D(2) dopamine receptor [3], 316 nM.
Regarding `CCN(C)C(=O)Oc1cccc([C@H](C)N(C)C)c1` [RIVASTIGMINE], in data set [9], the Activity entry was “Non-Toxic”. The result in the data set on Rattus norvegicus was Active.
Turning to `CN1CCc2ccc(OCCCN3CCN(c4ccccn4)CC3)cc2C1=O`, the Ki in data set [1] is 1160 nM; in data set [2], greater than 10000 nM; on D(2) dopamine receptor [3], greater than 10000 nM.
For `O=c1ccc2ccc(OCCCCN3CCN(c4cccc5sccc45)CC3)cc2[nH]1` [BREXPIPRAZOLE], the Ki in data set [20] was determined as 0.47 nM.
Regarding `CN1CCc2ccc(OCCCN3CCN(c4ccccc4)CC3)cc2C1=O`, the Ki (in data set [1]; in data set [2]; on D(2) dopamine receptor [3]) was greater than 10000 nM in each case.
Take `CN1CCc2ccc(OCCCN3CCN(c4cccc(C(F)(F)F)c4)CC3)cc2C1=O`: the Ki in [1] was found to be 102 nM; in data set [2], 1040 nM; on D(2) dopamine receptor [3], 123 nM.
In the same order, the values of `CN1CCc2ccc(OCCCN3CCN(c4ccc5ccccc5n4)CC3)cc2C1=O` are greater than 10000 nM, 10.2 nM and greater than 10000 nM.
For the molecule `COc1ccccc1N1CCN(CCCOc2ccc3c(c2)C(=O)N(C)CC3)CC1`, the Ki came to 992 nM in [1], 1110 nM in [2] and 896 nM on D(2) dopamine receptor [3].
In the same order, the values of `CN1CCc2ccc(OCC(O)CN3CCC(c4noc5cc(F)ccc45)CC3)cc2C1=O` (centres undefined) are 768 nM, 856 nM and 1240 nM.
The matching figures for `CN1COc2ccc(OCCCN3CCC(c4noc5cc(F)ccc45)CC3)cc2C1=O`: 598 nM, 187 nM and 698 nM.
As to `O=C(CCCCN1CCC(c2noc3cc(F)ccc23)CC1)c1cc2c3c(c1)CCN3C(=O)CC2`, the Ki at D(2) dopamine receptor [21] was found to be 2.9 nM; at Histamine H1 receptor [22] it was 630 nM; in data set [23] it was 616 nM; in data set [24] it was 8.6 nM; at D(3) dopamine receptor, 1.66 nM; in data set [25] it was 0.72 nM.

The values are drawn from ChEMBL document CHEMBL4706549, “Isoquinolinone derivatives as potent CNS multi-receptor D/5-HT/5-HT/5-HT/5-HT agents: Synthesis and pharmacological evaluation” (Eur J Med Chem, 2020).
